The values that follow come from PMC12580772, “A First-in-Human Study of ATM Inhibitor Lartesertib as Monotherapy in Patients with Advanced Solid Tumors” (Clinical Cancer Research, 2025).

“Also recorded” adds a separate entry of the source.

The subject of series [1] is human squamous cell carcinoma of the head and neck FaDu xenograft. More on the design: method as in PMID 35405736. Particulars: in combination with radiation; cited from earlier work.
For series [2], the system named is immune cell subsets and circulating immune factors. In words: Immunophenotyping by flow cytometry and circulating immune factors. Type of series: in vivo, human. Here is the method: Serial blood samples collected at each visit were tested for total blood cell counts and immune cell subsets (e.g., T cells, B cells, and NK cells) to evaluate immunophenotyping by flow cytometry.
Circulating immune factors (e.g., IFN-β, IFN-γ, IL-1β, IL-2, IL-4, IL-6, IL-8, IL-10, IL-12p70, IL-13, TNF-α, and NKG2DL) were assessed using immunofluorescence assays. Additionally, blood samples were tested for plasma ctDNA by next-generation sequencing at Guardant Health using the OMNI panel. This analysis was conducted to evaluate surrogate markers of tumor dynamics, sensitivity, and resistance to treatment. Molecular response (MR) was assessed and defined as strongest change of—per visit averaged—somatic variant allele frequency (VAF) against the pretreatment level as follows: Best delta mean VAF = MIN (meanVAFvisiti – meanVAFpretreatment / meanVAFpretreatment)

The nature of series [3]: PK analysis of lartesertib in plasma (non-compartmental). The series is classed as in vivo, human. As to the method: The PK of lartesertib was characterized during dose escalation using an intensive PK sample collection schedule. Blood samples were collected at multiple timepoints during Cycle 1, including on Day 1 (pre-dose at 0 hours and post-dose at 0.5, 1, 2, 3, 4, 6, 8, and 12 hours) and Day 8 (pre-dose at 0 hours and post-dose at 1, 2, 3, 4, 6, 8, and 12 hours). PK parameters were calculated from individual plasma concentration–time data using non-compartmental methods.

Series [4] has as its system MiaPaCa2 pancreatic cancer model. Set-up: method as in PMID 37079339. Particulars: combination with the ATR inhibitor gartisertib; cited from earlier work.

On to `COc1cc2ncc3c(c2cc1-c1cn(C)nc1C)n(-c1c(F)cncc1OC)c(=O)n3C` [lartesertib], for which, in series [1], the Antitumor response result is “significant dose-dependent antitumor responses”. Moreover, the NK cell subsets entry in series [2] (across all DLs) is given as “negative trend”. In addition, in series [2] (among different DLs), the “Cytokine modulation (IFN-γ, IL-10, IL-6, IL-8, and TNF-α)” value is given as “No relevant trends”. In addition, the “Levels of most explored immune cell subsets” value in series [2] (tested DLs, incl. myeloid-derived suppressor cells, T and B lymphocytes) is “did not cause any significant change”. Further, the Exposure versus dose entry in series [3] (100-400 mg once daily) is listed as “increased in a dose-related manner; also recorded: increased in a dose-dependent manner”. Further, the half-life in series [3] (human, plasma, oral, across 100-400 mg once daily, Day 1 and Day 8, read-out: Geometric mean elimination half-life (t1/2)) lay within 5 to 7 h. For the same compound, the Tmax in series [3] (human, plasma, oral, across 100-400 mg once daily, Day 1 and Day 8, read-out: Median time to reach maximum observed plasma concentration (tmax)) is 1 to 2 h. The Tumor growth entry in series [4] is recorded as “complete tumor growth inhibition”.
